This passage reports IC50 results from ChEMBL document CHEMBL4339183, “Discovery of N-indanyl benzamides as potent RORγt inverse agonists” (Eur J Med Chem, 2019).

Bounds are passed on as bounds.

The target in assay [1] is T1, Nuclear receptor ROR-gamma (Mus musculus, UniProt P51450).
T1 sequence (P51450 whole entry): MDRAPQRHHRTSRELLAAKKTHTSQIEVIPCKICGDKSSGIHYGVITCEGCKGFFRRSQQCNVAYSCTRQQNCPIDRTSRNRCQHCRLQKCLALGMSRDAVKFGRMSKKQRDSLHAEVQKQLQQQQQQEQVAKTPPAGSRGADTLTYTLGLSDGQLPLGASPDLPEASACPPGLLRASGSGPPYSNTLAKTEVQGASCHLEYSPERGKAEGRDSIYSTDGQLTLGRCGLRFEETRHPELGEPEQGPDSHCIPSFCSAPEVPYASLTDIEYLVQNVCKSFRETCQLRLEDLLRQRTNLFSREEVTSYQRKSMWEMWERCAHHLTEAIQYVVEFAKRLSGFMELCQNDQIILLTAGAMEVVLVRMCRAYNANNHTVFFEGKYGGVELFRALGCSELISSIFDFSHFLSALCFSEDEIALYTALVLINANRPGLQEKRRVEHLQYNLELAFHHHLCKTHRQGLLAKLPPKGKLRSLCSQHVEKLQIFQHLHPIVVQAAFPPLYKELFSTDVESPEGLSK
The experiment in a line: Inverse agonist activity at RORgammat in mouse CD4 positive T cells assessed as inhibition of Th17 cell differentiation by measuring IL-17 release after 4 days by cellular staining based flow cytometry.

Assay [2] addresses T2, Nuclear receptor ROR-gamma (Homo sapiens, UniProt P51449).
T2 sequence (P51449 whole entry): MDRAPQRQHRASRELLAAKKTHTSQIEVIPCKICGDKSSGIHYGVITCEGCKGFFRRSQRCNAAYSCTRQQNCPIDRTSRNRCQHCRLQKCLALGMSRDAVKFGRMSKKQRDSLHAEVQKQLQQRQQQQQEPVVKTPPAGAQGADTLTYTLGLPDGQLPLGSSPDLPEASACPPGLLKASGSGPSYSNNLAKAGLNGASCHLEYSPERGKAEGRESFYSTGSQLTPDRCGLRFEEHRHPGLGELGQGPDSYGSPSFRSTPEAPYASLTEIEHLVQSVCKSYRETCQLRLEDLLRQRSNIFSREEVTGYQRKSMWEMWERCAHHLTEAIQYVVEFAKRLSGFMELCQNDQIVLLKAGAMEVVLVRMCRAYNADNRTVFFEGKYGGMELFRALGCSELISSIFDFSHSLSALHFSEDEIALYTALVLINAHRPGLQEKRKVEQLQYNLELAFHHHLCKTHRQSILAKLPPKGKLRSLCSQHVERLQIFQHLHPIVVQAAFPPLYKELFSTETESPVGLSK
The experiment in a line: Inverse agonist activity at APC-labeled biotinylated RORgammat LBD (unknown origin) assessed as inhibition of N-(2-chloro-6-fluorobenzyl)-N-((20-methoxy-[1,10-biphenyl]-4-yl)methyl)benzenesulfonamide-induced co-activator europium-labeled biotinylated SRC1 peptide recruitment after 1 hr by LANCE-FRET assay.

As to `N#Cc1cccc(C(=O)Nc2ccc3c(c2)[C@H](N2CC4CCC(C2)N4C(=O)C2CCCCC2)CC3)c1`, the IC50 entry in assay [1] is “Not Active”.

For the compound `O=C(CC1CCOCC1)Nc1cccc2c1CCC2N1CC2CCC(C1)N2C(=O)C1CCCC1` (stereo not drawn), the IC50 in assay [2] (read-out: IC50) is above 10 µM.

For `N#Cc1cccc(C(=O)Nc2cccc3c2ccn3C2CCN(C(=O)C3CCCC3)CC2)c1`, the concentration for half-maximal inhibition (IC50) result in assay [2] is recorded as “Not Active”.
